# Test results: patent US20150225454A1, “TETRABRANCHED PEPTIDES AND ANALOGUES AS A NEW CLASS OF ANTIMICROBIALS AND THEIR PREPARATION THEREOF” (priority 2012, published 2015)
# Where two headings read alike, the source gives them in different places. Where a SMILES comes first, the peptide text is derived from it. Bridges are numbered along the chain shown (N, C = ends). Roman numbers before positions name the chains, in order.
# How the values were obtained:
# [1] = Acute in vivo toxicity in mice; design: species or system C57BL6 mice
# Description: Acute toxicity of B4010 was assessed with C57BL6 (6-8 weeks old) wild type mice. Two healthy wild type mice were chosen for each route of administration. B4010 was delivered through intra-peritoneal (200 mg/kg) or (100 mg/kg) intra-venous routes. Two animals were used for each administration and monitored through 24/48 h to determine mortality, or signs of toxicity.
# [2] = system: C. albicans; test: ATP bioluminescence assay (extracellular ATP release); assay type: cell-based
# Description: The extracellular ATP levels upon challenging C. albicans with B4010 were determined as reported before (Koshlukova et al., 1999). Cells (OD600≈0.6) were incubated […] with or without various additives for 2 hours at 37° C. with orbital shaking. […] Each tube was then centrifuged at 5000 g for 5 mins. Then 225 μL of boiling TE buffer (50 mM Tris, 2 mM EDTA, pH 7.8) was added to the 25 μl of the supernatant and mixed well. This mixture was boiled again for another 2 minutes and stored at 4° C. until further examination. 100 μL of a luciferin-luciferase ATP assay mixture was added to 100 μL of the supernatant and luminescence was monitored using the Infinite M200 microplate reader (Tecan Group Ltd., Switzerland). […] For dose-dependent studies, the concentration of the peptide was varied from 0.4-44 μM. The extracellular ATP concentration was determined from calibration curve obtained by ATP assay kit (Molecular Probes, OR, USA) as per the manufacturer's instruction.
# [3] = system: C. albicans; test: Candidacidal activity (cell viability) in the presence of metal ions; assay type: cell-based; details: 5.5 μM
# Description: To study the effects of metal ions on viability, the broth solution containing C. albicans (OD600=0.4-0.6) was adjusted to appropriate final concentrations of metal ions, incubated with 5.5 μM of B4010 for 6 h and the cell viability was determined as before after 48 h.
# [4] = system: C. albicans (ATCC 10231 and DF2672R); assay type: cell-based; details: for time to 4 log reduction (99.99%) in viable cells: ATCC strain
# Description: The time-kill kinetics was measured for two strains of C. albicans (ATCC 10231 and DF2672R). The cultures were grown overnight in SD broth and the cell concentration was adjusted to 10^5-10^6 CFU/ml with phosphate buffer. The peptide or antifungals were added to the individual cultures. […] The test solution was incubated at 37° C. with constant shaking. 100 μL of the suspension is withdrawn at predetermined time points, serially diluted (10^2 or 10^3 fold) and poured into the SDA plate. The plate was incubated for 48 h at 37° C. for colony counting. The data were expressed in terms of % cell viability relative to the positive control.
# [5] = system: C. albicans; test: microbe, parasite or virus in culture; assay type: cell-based
# Description: The yeast strains were cultivated and suspended in Sabouraud's Dextrose (SD) broth diluted at one sixth at a starting OD600=˜0.08 in a flat-bottomed microtitre plate. A serial dilution of peptide in the same broth was mixed with the inoculum to give a final peptide concentration of 0.4-22 μM. The antifungal activity was assessed by monitoring the OD600 in cycles of 30 minutes and an orbital shaking at 100 rpm using an Infinite M200 microplate reader (Tecan Group Ltd., Switzerland) for 24/48 h at 37° C. Cultures without peptides were used as positive controls and broth alone or with 22 μM peptide served as negative controls. The minimum concentration required for complete inhibition was assessed by both visible observations as well as by measuring the OD600 and taken as the MIC. Each experiment was repeated in triplicates.
# [6] = system: S. cerevisiae; assay type: cell-based
# Description: A few identical colonies from WT and mutant strains were immediately inoculated and grown overnight in SD broth containing 0.1 mg/ml ampicilin at 30° C. Cells were harvested by centrifugation, washed with sterile water and frozen. Cells were plated again on SD agar plates and incubated at 37° C. for 48 h. Two or three identical colonies of the mutant strains were collected and inoculated in SD broth. Peptides were dissolved in sterile water and mixed with WT and mutant strains and incubated at 37° C. for 48 or 72 h in a test tube. The lowest concentration of the peptide that inhibited the growth of the yeast strain was determined by visual inspection.
# [7] = system: C. albicans; test: diS-C3-5 membrane depolarisation assay; assay type: cell-based
# Description: Change in membrane potential of C. albicans upon addition of B4010 was monitored by the release of potential sensitive probe diS-C3-5 dye. Briefly, 1 ml of overnight grown mid-log phase Candida cells in 5 mM HEPES buffer (pH 7.0) was mixed with 10 μM diS-C3-5 dye and incubated at 37° C. for 1-2 h in a thermo shaker. 800 μL of the dye-loaded cell suspension was transferred to a stirred quartz cuvette and the change in fluorescence intensity was monitored at an emission wavelength (λem) of 670 nm (excitation wavelength, 622 nm) using a Quanta Master spectrofluorimeter (Photon Technology International, NJ, USA). The excitation and emission bandwidths were set at 1 and 2 nm, respectively. Once a constant fluorescence level was achieved, 10 μL of concentrated peptide solution in HEPES buffer was added so that the final concentration of peptide was 0.22-22 μM. The change in fluorescence intensity was monitored continuously for 1 or 2 h. To study the effects of energy poisons and ion-channel inhibitors, the additives were added prior to the addition of 5.5 μM B4010. The change in fluorescence intensity was monitored as before.
structure (smiles),measurement,setting,value
"CC(C)[C@H](NC(=O)[C@H](CCCCN)NC(=O)[C@H](CCCNC(=N)N)NC(=O)CNC(=O)[C@@H](N)CCCNC(=N)N)C(=O)N[C@H](C(=O)N[C@@H](CCCNC(=N)N)C(=O)N[C@@H](CCCNC(=N)N)C(=O)NCCCC[C@H](NC(=O)[C@H](CCCNC(=N)N)NC(=O)[C@H](CCCNC(=N)N)NC(=O)[C@@H](NC(=O)[C@@H](NC(=O)[C@H](CCCCN)NC(=O)[C@H](CCCNC(=N)N)NC(=O)CNC(=O)[C@@H](N)CCCNC(=N)N)C(C)C)C(C)C)C(=O)NCCCC[C@H](NC(=O)[C@H](CCCCNC(=O)[C@H](CCCNC(=N)N)NC(=O)[C@H](CCCNC(=N)N)NC(=O)[C@@H](NC(=O)[C@@H](NC(=O)[C@H](CCCCN)NC(=O)[C@H](CCCNC(=N)N)NC(=O)CNC(=O)[C@@H](N)CCCNC(=N)N)C(C)C)C(C)C)NC(=O)[C@H](CCCNC(=N)N)NC(=O)[C@H](CCCNC(=N)N)NC(=O)[C@@H](NC(=O)[C@@H](NC(=O)[C@H](CCCCN)NC(=O)[C@H](CCCNC(=N)N)NC(=O)CNC(=O)[C@@H](N)CCCNC(=N)N)C(C)C)C(C)C)C(=O)N[C@@H](CCCCN)C(=O)O)C(C)C [Peptide B4010] (I: H-RGRKVVRRKKK-OH / II: H-RGRKVVRRK / III: H-RGRKVVRR / IV: H-RGRKVVRR; amide I:9-IV:C, I:10-II:C, II:9-III:C; N-terminus and C-terminus assumed)","mortality, morbidity or toxicity",[1]; IP 200 mg/kg,"no sign of mortality, morbidity or toxicity"
same,"mortality, morbidity or toxicity",[1]; IV 100 mg/kg,"no sign of mortality, morbidity or toxicity"
same,time to maximum ATP efflux,[2]; 4×MIC,≤ 30 min
same,concentration of maximum ATP release,[2]; dose-dependent study,around 4 ×MIC
same,candidacidal activity,[3]; high concentration of KCl,slight decrease in the candidacidal activity
same,cell viability,[3]; presence of monovalent and divalent cations,complete loss of viable cells
same,time to complete killing,[4]; 4×MIC,30 min
same,killing,"[4]; ATCC 10231, 1 h, 1",~91%
same,killing,"[4]; ATCC 10231, 48 h, 2",~97%
same,time to 3 log reductions of viable cells,"[4]; ATCC and clinical isolates, 2× or 4×MIC",less than 1 h
same,time to 4 log reduction (99.99%) in viable cells,[4]; 4×MIC,≤ 20 minutes
same,time to 4 log reduction (99.99%) in viable cells,[4]; 8×MIC,≤ 10 minutes
same,time to complete killing,"[4]; C. albicans DF2672R, 2×MIC",60 min
same,MIC for two C. albicans clinical isolates,[5],0.34 µM
same,"MIC values, C. albicans",[5],0.37 to 1.4 µM
same,decrease in MIC compared to the co-valent dimer,[5],4-10 fold
same,activity superior to natamycin,[5]; ATCC reference and clinical isolates,2-4 times
same,MIC,"[6]; RH448, Wildtype, Ergosterol (77%)",5.5 µM
same,MIC,"[6]; RH5684, erg6Δ",2.8 µM
same,MIC,"[6]; RH5812, erg2Δ",1.4 µM
same,MIC,"[6]; RH5930, erg3Δerg6Δ",1.4 µM
same,MIC,"[6]; RH6826, 7-deoxycholesterol",2.8 µM
same,MIC,"[6]; RH6827, Campasterol",2.8 µM
same,MIC,"[6]; RH6829, Cholesterol",2.8 µM
same,decrease in MIC of ergΔ mutants compared to the wild type,[6]; all the ergΔ mutants,2-4 fold
same,decrease in MIC compared to the wild type,"[6]; erg2Δ, erg3Δ, erg3Δerg6Δ and erg4Δerg5Δ",4 folds
same,increased sensitivity compared to the wild type,[6]; erg2Δerg6Δ and erg6Δ,2 fold
same,reduction in fluorescence intensity in azide-treated cells compared to control cells,[7]; 5 mM NaN3 before B4010,~25 fold
same,time course of depolarization,[7]; upon addition of B4010,occurred instantaneously
